# From a melting point compilation (Tetko et al.)
row,melting point,SMILES
1,64 to 66 °C,O=C1CC2(CCCC2)CC(=O)O1
2,141 °C,CCOC(=O)CC[C@H](NC(=O)c1ccc(N)cc1)C(=O)OCC
3,216 to 219 °C,Cc1c(C=NO)c(=O)n(-c2ccccc2)n1C
4,96 to 98 °C,O=C(O)CCc1ccccc1Br
5,45 to 46 °C,CCOC(=O)c1c(N=C=S)sc2c1CCCC2
6,206 °C,O=C1CN(N=Cc2ccc([N+](=O)[O-])o2)C(=O)N1CN1CCOCC1
7,234 to 236 °C,O=C(O)c1ccc(-c2ccccc2F)cc1
8,309 to 310 °C,O=C(O)c1cc2cccnc2nc1C(F)(F)F
9,153 to 157 °C,O=C(N=Nc1ccccc1)NNc1ccccc1
10,143 °C,CCCCCCCCC(NC(=O)OCC1c2ccccc2-c2ccccc21)C(=O)O (stereo not given)
11,146 °C,Cc1cccc(C)c1N(C(=O)CCl)C1CCOC1=O (stereo not given)
12,64 °C,C[Si](C)(C)OC1(C#Cc2ccccc2)Cc2ccccc21 (stereo not given)
13,51 to 54 °C,OCc1cccc(N2CCOCC2)c1
14,120 to 122 °C,Cc1cc(C(=O)CC#N)c(C)o1
15,128 °C,O=C(NO)c1ccccc1
16,268 to 270 °C,O=C(Nc1ccc(F)cc1)Nc1nnc(-c2ccc(Cl)cc2)o1
17,70 °C,Cc1cc(OCc2ccccc2)ccc1[N+](=O)[O-]
18,199 °C,COc1nccnc1N(C(C)=O)S(=O)(=O)c1ccc(N)cc1
19,360 °C,O=C1OC(=O)C2C3C=CC(C12)C1C(=O)OC(=O)C31 (stereo not given)
20,192 to 194 °C,Cc1cc(C)c(Cc2cnc(NC3=NCCN3)s2)c(C)c1
21,200 °C,Nc1nsc2ccc([N+](=O)[O-])cc12
22,161 to 165 °C,Sc1nnc(S)s1

row,melting point,SMILES
1,112 °C,C/C(=N/NC(N)=O)C(C)Cc1ccccc1 (stereo not given)
2,90.5 °C,CC(C)(C)OC(=O)NC(CO)C(=O)O (stereo not given)
3,80 °C,Clc1cncc(Br)c1
4,178 °C,CC1(C)C2CCC1(C)C(NC(=S)Nc1ccccc1)C2NC(=S)Nc1ccccc1 (stereo not given)
5,48 °C,Cc1ccc(S(=O)(=O)C#N)cc1
6,187 °C,CC(=O)n1c2ccccc2c2cc3ccccc3nc21
7,132 °C,NNC(=S)Nc1cccc(Cl)c1
8,18 to 20 °C,Cc1ccc([N+](=O)[O-])c(I)c1
9,4 °C,O=C(O)C1CCCC1
10,127 to 129 °C,CC(=O)Nc1ccc2c(c1)CCCC2=O
11,203 to 205 °C,O=[N+]([O-])c1ccc(-c2nc3n(c2[N+](=O)[O-])CCS3)cc1
12,205 °C,CC(C)(C)OC(=O)N[C@@H](CCCCN)C(=O)O
13,97 °C,Nc1cc(Cl)cc(Cl)c1O
14,286 °C,O=C1C2CC3CC(C2)CC1C3
15,37 to 39 °C,COc1ccc(C)cc1O
16,128 to 130 °C,ClCc1nnc(-c2ccc3ccccc3c2)o1
17,159 °C,Oc1cc(C(F)(F)F)ccn1
18,92 to 96 °C,O=Cc1cccn1-c1ccc(Cl)cc1
19,112 to 114 °C,CC(=O)c1cc[nH]c1
20,83 °C,Cc1ccc(S(=O)(=O)N(Cl)Cl)cc1
21,215 °C,O=[N+]([O-])c1cc([N+](=O)[O-])c(/C=C/c2cccc3c2OCO3)cc1/C=C/c1cccc2c1OCO2
22,300 °C,O=S1(=O)OC2(c3ccccc31)c1ccc(O)c(O)c1Oc1c2ccc(O)c1O

row,melting point,SMILES
1,263 °C,N#C/C(=N\Nc1c(Cl)cc(Cl)cc1Cl)c1nc2ccccc2[nH]1
2,133 °C,O=C(O)CC(=O)CC(=O)O
3,152 °C,O=C(O)C(Cc1ccc([N+](=O)[O-])cc1)c1ccccc1 (stereo not given)
4,121 °C,CC(=O)OC1=C(C(C)C)C(=O)C2=C(C1=O)C1(C)CCCC(C)(C)C1CC2OC(C)=O (stereo not given)
5,63 to 64 °C,Cc1cc(Br)cc(N)c1N
6,40 °C,Nc1ccc(Br)cc1F
7,163 to 165 °C,Oc1ccc(C=Nc2ccccc2N=Cc2ccc(O)cc2O)c(O)c1
8,134 °C,Nc1ccc(-c2ccc(Cl)cc2)cc1
9,-79 °C,CC=CC=CC
10,-80 °C,CCCCO[Si](OCCCC)(OCCCC)OCCCC
11,159 °C,CCC(=O)Nc1nc(C)c(Cl)s1
12,41 °C,Cc1ccc(C(=O)N(C)C)cc1
13,139 °C,O=C(OCc1ccc([N+](=O)[O-])cc1[N+](=O)[O-])c1ccccc1
14,297 to 298 °C,O=C(O)c1cc(O)c2cccc(O)c2n1
15,128 °C,Cc1ccc(-c2onc(C(=O)c3cccs3)c2S(=O)(=O)c2ccccc2)cc1
16,196 °C,O=C(Nc1c(Cl)cccc1Cl)C(C(F)(F)F)C(F)(F)F
17,203 to 206 °C,Cn1c(N)nc2ccccc21
18,32 °C,Oc1c(F)cc(Br)cc1Br
19,18.5 °C,CCOC(=O)c1ccc2c(c1)OCO2
20,209 to 210 °C,O=C(O)c1cccc(Cn2cncn2)c1
21,176 to 177 °C,O=C(O)c1ccc(OC(F)(F)C(F)F)cc1
22,91 °C,Cc1cc2ccccc2oc1=O

row,melting point,SMILES
1,147 to 149 °C,O=C(O)CCn1ccnc1
2,72 °C,O=COc1ccc([N+](=O)[O-])cc1
3,28 °C,C#CC(O)c1ccccc1 (stereo not given)
4,53 to 55 °C,O=Cc1ccc(C(F)(F)F)nc1
5,175 °C,Cc1cc(Cl)ccc1NC(=S)N(C)C
6,215 °C,Nc1ccc(N=Nc2ccc([N+](=O)[O-])cc2)cc1
7,114 to 118 °C,O=C(CBr)c1cc(-c2ccc(Cl)c(Cl)c2)no1
8,137 to 138 °C,NC(=S)Nc1cccc(Cl)c1
9,146 °C,C1CC2CCCC(C1)C2
10,74 °C,O=Cc1ccc2oc3ccccc3c2c1
11,196 °C,CSc1ccccc1C(=O)N(NC(=O)c1ccccc1)C(C)(C)C
12,211 to 215 °C,O=C(O)CNc1ccc(Br)cc1C(=O)O
13,-50 °C,FC(F)(F)C(F)(F)C(F)(F)C(F)(F)C(F)(F)I
14,312 °C,CC(N)(Cc1ccc(O)cc1)C(=O)O (stereo not given)
15,83 °C,OCC(CO)(CCl)CCl
16,79 °C,COc1ccc(C(=O)c2ccc(OC)c(OC)c2)cc1
17,82 to 86 °C,Cc1ccc(-c2cc[nH]n2)cc1
18,72 °C,CCOC(=O)c1cc(C)n(-c2cc(C)n(C)n2)n1
19,158 to 159 °C,Cn1cnnc1-c1cccc(N)c1
20,236 °C,O=C(O)c1cccc(S(=O)(=O)Nc2ccccc2)c1
21,111 to 116 °C,OCC(Br)=C(Br)CO
22,285 to 288 °C,CN(C)c1ccc(C=C2SC(=S)NC2=O)cc1

row,melting point,SMILES
1,166 to 168 °C,O=[N+]([O-])c1ccc(N=C=Nc2ccc([N+](=O)[O-])cc2)cc1
2,109 to 111 °C,NNS(=O)(=O)c1ccc(-c2ccccn2)s1
3,230 to 232 °C,O=[N+]([O-])c1ccc(-n2cc([N+](=O)[O-])c(-c3ccccc3)n2)cc1
4,124 °C,CC1(C(=O)O)CCC(C=Cc2ccccc2)C1(C)C (stereo not given)
5,151 to 153 °C,CCOC(=O)c1cnc2cc(-c3cccs3)nn2c1C
6,74 to 79 °C,O=C(Cl)c1ncoc1-c1ccccc1
7,125 °C,ON(c1ccccc1)C(Br)C(Br)c1ccccc1 (stereo not given)
8,72 °C,N#Cc1ccc(Cl)c(Cl)c1
9,-20 °C,Clc1ccc(Br)s1
10,11.5 °C,CCOC(=O)c1cccc(C(=O)OCC)c1
11,165 to 167 °C,c1ccc(C/C(=N\Nc2ccccc2)c2ccc3ccccc3c2)cc1
12,157 to 159 °C,FC(F)(F)c1cccc(-n2cc[nH]c2=S)c1
13,173 °C,Cc1cccc(O)c1C(=O)O
14,170 °C,Cc1cc(C(N)=S)n(C)n1
15,67 °C,Cc1cnc(CO)c(C)c1[N+](=O)[O-]
16,308 to 310 °C,O=C1C(C(Br)C2(Br)C(=O)N(c3ccccc3)N=C2c2ccc([N+](=O)[O-])cc2)C(c2ccc([N+](=O)[O-])cc2)=NN1c1ccccc1 (stereo not given)
17,92 °C,O=[N+]([O-])c1cc(Br)ccc1O
18,156 to 157 °C,Cc1nn(C)c(N2CCOCC2)c1N
19,210 °C,CC1=C(C(=O)OC(C)(C)C)C(c2ccc3c(c2)OCO3)NC(=O)N1 (stereo not given)
20,27 °C,CCCCCC(=O)c1ccccc1
21,163 °C,COc1cc(OC)nc(Sc2cccc3c2C(=O)OC3C)n1 (stereo not given)

row,SMILES,melting point
1,COc1cc([N+](=O)[O-])c(Cl)cc1NC(C)=O,185 °C
2,CC=C(CC)C(=O)NC(N)=O,198 °C
3,CCOP(=O)(OCC)OC(=CCl)c1ccc(Cl)cc1Cl,-20 °C
4,C[C@]12CCC(=O)C[C@H]1CC[C@H]1[C@H]3CCC(=O)[C@@]3(C)CC[C@@H]12,179 to 180 °C
5,CCCCc1ccc2ccccc2c1,-5 °C
6,C=CC(=O)OCCCCCCCC(C)C,-100 °C
7,CN1CCC23c4c5ccc(O)c4OC2C(=O)CCC3C1C5 (stereo not given),266 °C
8,O=C(Nc1ccc(F)cc1F)c1cccnc1Oc1cccc(C(F)(F)F)c1,160 °C
9,FC(F)(F)c1ccc(N2CCNCC2)cc1,89 to 92 °C
10,CSc1nc2ccccc2c(=O)n1-c1ccccc1,123 to 125 °C
11,COc1ccc(C(=O)Cc2c(CCN(C)C)cc3c(c2OC)OCO3)c(C(=O)O)c1OC,138 °C
12,COc1cccc(C2(O)CCCCC2CN(C)C)c1 (stereo not given),180 °C
13,CCC12CCCN3CCC4(c5cccc(OC)c5N(C(C)=O)C4CC1)C32 (stereo not given),208 °C
14,CON(C)C(=O)Nc1ccc(Br)c(Cl)c1,96 °C
15,O=C(O)C(C(F)(F)F)C(F)(F)F,52 °C
16,CN(C)c1ccc(N)cc1,53 °C
17,O=C(CCl)Nc1ccc(F)cc1,131 to 132 °C
18,O=C(CCl)NCO,100 °C
19,Clc1cc2c(cc1Cl)Oc1cc(Cl)c(Cl)cc1O2,305 °C
20,Cc1cc(CCl)c(CCl)cc1C,104 to 106 °C
21,O=C(Cl)OCC(Cl)(Cl)Cl,1 °C
